This is an account of results in patent US4560758A, “Process for preparing pyrrolo[1,2-a]imidazoles and imidazo[1,2-a]pyridines” (Pennwalt Corporation, priority 1984, dated 1985).

Assay [1] concerns antibody secreting cells in the spleen. Description: Kennedy Plaque Assay (humoral immune system depressed by 6-mercaptopurine; number of plaques). Conditions: for change in vivo at 6.25 mg/kg: ip, 60 mg/Kg of 6 MP plus 6.25 mg/Kg (i.p.) of compound, read-out: Percent Restoration (+) or Suppression (-). The format is in vivo. As for the experimental part: In this assay, in which the in vitro model used was the Kennedy modification of the Jerne (or plaque) technique (J. C. Kennedy et al, Immunol., 20, p. 253 (1971)), the animal's humoral immune system is depressed artificially by the known immunosuppressant drug, 6-mercaptopurine (6-MP), and then the ability of a drug to either suppress it further or restore it towards normal is evaluated. The change in the number of plaques, which is a direct correlate of the change in the number of antibody secreting cells in the spleen, is used to measure this effect. For example, the compound of Example 11 results in greater than 100% restoration of the number of plaques and thus causes an immunoenhancement of the humoral system. In contrast, the compound of Example 28 results in about 24% further suppression of the number of plaques and thus behaves as an immunosuppressant.
of 6 MP plus 6.25 mg/Kg (i.p.)
^1 without 6MP treatment
^2 percent change from control (i.e., without 6MP)

The test system of assay [2] is carrageenan-induced paw edemas. Description: Anti-inflammatory assay, carrageenan-induced paw edema. The format is in vivo, Male, Sprague-Dawley rats. How it is done: The anti-inflammatory properties of various compounds of this invention were determined by carrageenan-induced paw edemas of test rats. Male, Sprague-Dawley rats (Blue Spruce Farm) were ordered at 125-140 g, housed for one week, and allowed food and water ad libitum. At the time of the experiments, only rats weighing 160-200 g were used.
All compounds were dissolved or suspended in a 0.5% water solution of Methocel and orally administered to groups of six rats each. Control rats received Methocel only. Two hours later (unless otherwise stated), paw edema was induced by subcutaneous injection into the plantar surface of the right hind paw of 0.1 ml of a 1.0% homogenized suspension of carrageenan.
Immediately, the volume of the paw was measured by immersing it in mercury to above the lateral mateolus. The mercury in a glass cylinder 25 mm in diameter and 60 mm deep was connected at the bottom on the cylinder by a column of water to a Statham transducer (model P23BB), range 0-5 cm of mercury pressure. The volume was recorded electronically on a Beckman recorder, R511. Three hours later, the inflamed paw volume was measured again, and the change in volume was recorded for each group. The percent inhibition of edema was calculated using the control group paw volume as 100% edema, i.e., as (the change in edema in the control group less the change in edema in the test group) times 100 divided by the change in edema in the control group.
A general note: In the carrageenan paw model, swelling and tenderness develop within hours.

Another assay deals with mouse hepatitis virus. Description: Antiviral assay - hepatitis in mice. To be noted: once daily for 3 days; for Mean Liver Score: day 4, 0 (normal) to 4 (extreme discoloration); for Percent Survival: day 21. The format is in vivo. As for the experimental part: Female mice weighing approximately 21-24 grams were inoculated with 0.1 ml of a mouse liver suspension containing mouse hepatitis virus, which liver suspension is at a dilution of 10^-5.5. Starting twenty-four hours post-virus inoculation, the animals were intraperitoneally ("i.p.") or orally administered the test compound(s) once daily for 3 days. On day 4, one third to one half of each group of mice were sacrificed and their liver removed for examination. Each liver was scored and assigned a number from 0 (normal liver) to 4 (extreme discoloration). The mean liver score per group was computed. The number of animals surviving until termination of the study (day 21) was also recorded. Anti-hepatitis activity is evidenced by increased survivor numbers and improved liver scores.

[3] abbreviates: 50 mg/Kg p.o., dosed two hours before carrageenan.

Several values for one entry are separate records, joined by “and”; a condition that tells them apart may be missing. Identical values can stand only once. Counter-ions that a name gives are not always drawn.

Consider `c1ccc(SC2(Sc3ccccc3)CCCN3CC(c4ccccc4)N=C32)cc1` (stereo not drawn) [Example 17, 2,3,5,6,7,8-Hexahydro-2-phenyl-8,8-di(phenylthio)imidazo[1,2-a]pyridine fumarate], for which, in assay [1] (without 6MP treatment, 6.25 mg/Kg (i.p.) of compound), the “percent change from control (i.e., without 6MP)” value was -37%. Besides, in assay [2] (setting [3]), the “Percent Inhibition of carrageenan induced edema” value (“Percent Inhibition” below) is 38.6%.

Consider `CC(C)SC1CCCN2CC(c3ccccc3)N=C12` (stereo not drawn) [Example 18, 2,3,5,6,7,8-Hexahydro-2-phenyl-8-i-propylthioimidazo[1,2-a]pyridine sulfate], for which the change in vivo at 6.25 mg/kg in assay [1] worked out at 97%. Further, the “Percent Inhibition” value in assay [2] (setting [3]) is 40.4%.

For the molecule `Clc1cccc(Cl)c1SC1CCCN2CC(c3ccccc3)N=C12` (stereo not drawn) [Example 20, 2,3,5,6,7,8-Hexahydro-2-phenyl-8-(2,6-dichlorophenylthio)imidazo[1,2-a]pyridine hydrochloride], the change in vivo at 6.25 mg/kg in assay [1] was -49%. In addition, the “Percent Inhibition” value in assay [2] (100 mg/Kg p.o., dosed two hours before carrageenan, hydrochloride) is 33.3% and 39.6%.

As for `COC1(OC)CCCN2CC(c3ccccc3)N=C21` (stereo not drawn) [Example 23, 2,3,5,6,7,8-Hexahydro-2-phenyl-8,8-dimethoxyimidazo [1,2-a]pyridine hydrochloride], the change in vivo at 6.25 mg/kg in assay [1] was determined as 64%. For the same molecule, the “Percent Inhibition” value in assay [2] (50 mg/Kg p.o., 20 hrs. predosed) is recorded as 32.1%; in assay [2] (setting [3]) it was -3.2%. Moreover, the “Mean Liver Score” value with mouse hepatitis virus (6.25 mg/Kg i.p., control 2.6) was determined as 1.7; in the assay with mouse hepatitis virus (12.5 mg/Kg i.p., control 2.6 (Examples 11, 16, 23), 3.4 (25, 26)), 1.0; in the assay with mouse hepatitis virus (25 mg/Kg i.p., control 2.6 (Examples 11, 23), 3.4 (25, 26)), 1.3. Also, the “Percent Survival” value is recorded as 40% in the assay on mouse hepatitis virus (6.25 mg/Kg i.p., control 5%); 70% in the assay with mouse hepatitis virus (12.5 mg/Kg i.p., control 5% (Examples 11, 16, 23), 6% (25, 26)); 50% with mouse hepatitis virus (25 mg/Kg i.p., control 5% (Examples 11, 23), 6% (25, 26)).
